“And” between values parts separate entries of the source, which are not always exact repeats. Identical values can stand only once.
Assays:
[1] = molecular target: ACK (Homo sapiens (Human), UniProt Q07912); assay: KINATIV assay; assay type: cell-based; details: 1 μM, 90 minutes, BCWM.1 cells
Method: (§1) The cells were harvested and lysed. The lysates were directly labeled with an ATP-biotin probe. Bound kinases were identified and quantitated by ACTIVX as described in Patricelli et al., Biochemistry, 2007, 46(2): 350-358. The compounds were tested in duplicates against duplicate or quadruplicate control samples.

[2] = system: PKD1, PKD2; assay: KINATIV assay; assay type: cell-based; details: 1 μM, 90 minutes, BCWM.1 cells
Method: as §1

[3] = molecular target: MAP2K1 (Homo sapiens (Human), UniProt Q02750); assay: KINATIV assay; assay type: cell-based; details: 1 μM, 90 minutes, BCWM.1 cells
Method: as §1

[4] = system: CDK11, CDK8; assay: KINATIV assay; assay type: cell-based; details: 1 μM, 90 minutes, BCWM.1 cells
Method: as §1

[5] = molecular target: ULK3 (Homo sapiens (Human), UniProt Q6PHR2); assay: KINATIV assay; assay type: cell-based; details: 1 μM, 90 minutes, BCWM.1 cells
Chain of ULK3 (Q6PHR2 whole entry): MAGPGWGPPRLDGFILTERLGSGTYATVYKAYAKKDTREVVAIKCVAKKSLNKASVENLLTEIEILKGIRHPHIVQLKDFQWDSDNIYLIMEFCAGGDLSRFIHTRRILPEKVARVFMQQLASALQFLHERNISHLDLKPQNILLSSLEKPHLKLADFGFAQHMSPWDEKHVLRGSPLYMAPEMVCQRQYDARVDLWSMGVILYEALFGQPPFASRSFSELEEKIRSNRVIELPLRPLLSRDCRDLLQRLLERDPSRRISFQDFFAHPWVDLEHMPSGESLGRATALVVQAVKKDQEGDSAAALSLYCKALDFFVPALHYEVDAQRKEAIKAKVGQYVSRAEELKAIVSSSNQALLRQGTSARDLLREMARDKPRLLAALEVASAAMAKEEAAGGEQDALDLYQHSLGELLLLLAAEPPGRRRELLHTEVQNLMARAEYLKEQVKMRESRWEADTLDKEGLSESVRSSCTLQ
Method: as §1

[6] = molecular target: CaMK4 (Homo sapiens (Human), UniProt Q16566); assay: KINATIV assay; assay type: cell-based; details: 1 μM, 90 minutes, BCWM.1 cells
Method: as §1

[7] = system: JNK1, JNK2, JNK3; assay: KINATIV assay; assay type: cell-based; details: 1 μM, 90 minutes, BCWM.1 cells
Method: as §1

[8] = molecular target: CLK3 (Homo sapiens (Human), UniProt P49761); assay: KINATIV assay; assay type: cell-based; details: 1 μM, 90 minutes, BCWM.1 cells
Method: as §1

[9] = molecular target: CaMK2g (Homo sapiens (Human), UniProt Q13555); assay: KINATIV assay; assay type: cell-based; details: 1 μM, 90 minutes, BCWM.1 cells
Method: as §1

[10] = molecular target: eEF2K (Homo sapiens (Human), UniProt O00418); assay: KINATIV assay; assay type: cell-based; details: 1 μM, 90 minutes, BCWM.1 cells
Method: as §1

[11] = system: MARK2, MARK3; assay: KINATIV assay; assay type: cell-based; details: 1 μM, 90 minutes, BCWM.1 cells
Method: as §1

[12] = molecular target: BARK1 (Homo sapiens (Human), UniProt P25098); assay: KINATIV assay; assay type: cell-based; details: 1 μM, 90 minutes, BCWM.1 cells
Method: as §1

[13] = system: TAO1, TAO3; assay: KINATIV assay; assay type: cell-based; details: 1 μM, 90 minutes, BCWM.1 cells
Method: as §1

[14] = molecular target: PIP4K2C (Homo sapiens (Human), UniProt Q8TBX8); assay: KINATIV assay; assay type: cell-based; details: 1 μM, 90 minutes, BCWM.1 cells
Method: as §1

[15] = system: KSR1, KSR2; assay: KINATIV assay; assay type: cell-based; details: 1 μM, 90 minutes, BCWM.1 cells
Method: as §1

[16] = system: p38d, p38g; assay: KINATIV assay; assay type: cell-based; details: 1 μM, 90 minutes, BCWM.1 cells
Method: as §1

[17] = molecular target: GSK3A (Homo sapiens (Human), UniProt P49840); assay: KINATIV assay; assay type: cell-based; details: 1 μM, 90 minutes, BCWM.1 cells
Method: as §1

[18] = molecular target: p70S6Kb (Homo sapiens (Human), UniProt Q9UBS0); assay: KINATIV assay; assay type: cell-based; details: 1 μM, 90 minutes, BCWM.1 cells
Method: as §1

[19] = system: MARK3, MARK4; assay: KINATIV assay; assay type: cell-based; details: 1 μM, 90 minutes, BCWM.1 cells
Method: as §1

[20] = molecular target: MAP3K1 (Homo sapiens (Human), UniProt Q13233); assay: KINATIV assay; assay type: cell-based; details: 1 μM, 90 minutes, BCWM.1 cells
Method: as §1

[21] = molecular target: ILK (Homo sapiens (Human), UniProt Q13418); assay: KINATIV assay; assay type: cell-based; details: 1 μM, 90 minutes, BCWM.1 cells
Method: as §1

[22] = molecular target: p70S6K (Homo sapiens (Human), UniProt P23443); assay: KINATIV assay; assay type: cell-based; details: 1 μM, 90 minutes, BCWM.1 cells
Method: as §1

[23] = system: Wnk1, Wnk2, Wnk3; assay: KINATIV assay; assay type: cell-based; details: 1 μM, 90 minutes, BCWM.1 cells
Method: as §1

[24] = molecular target: VRK2 (Homo sapiens (Human), UniProt Q86Y07); assay: KINATIV assay; assay type: cell-based; details: 1 μM, 90 minutes, BCWM.1 cells
Method: as §1

[25] = molecular target: NEK9 (Homo sapiens (Human), UniProt Q8TD19); assay: KINATIV assay; assay type: cell-based; details: 1 μM, 90 minutes, BCWM.1 cells
Chain of NEK9 (Q8TD19 whole entry): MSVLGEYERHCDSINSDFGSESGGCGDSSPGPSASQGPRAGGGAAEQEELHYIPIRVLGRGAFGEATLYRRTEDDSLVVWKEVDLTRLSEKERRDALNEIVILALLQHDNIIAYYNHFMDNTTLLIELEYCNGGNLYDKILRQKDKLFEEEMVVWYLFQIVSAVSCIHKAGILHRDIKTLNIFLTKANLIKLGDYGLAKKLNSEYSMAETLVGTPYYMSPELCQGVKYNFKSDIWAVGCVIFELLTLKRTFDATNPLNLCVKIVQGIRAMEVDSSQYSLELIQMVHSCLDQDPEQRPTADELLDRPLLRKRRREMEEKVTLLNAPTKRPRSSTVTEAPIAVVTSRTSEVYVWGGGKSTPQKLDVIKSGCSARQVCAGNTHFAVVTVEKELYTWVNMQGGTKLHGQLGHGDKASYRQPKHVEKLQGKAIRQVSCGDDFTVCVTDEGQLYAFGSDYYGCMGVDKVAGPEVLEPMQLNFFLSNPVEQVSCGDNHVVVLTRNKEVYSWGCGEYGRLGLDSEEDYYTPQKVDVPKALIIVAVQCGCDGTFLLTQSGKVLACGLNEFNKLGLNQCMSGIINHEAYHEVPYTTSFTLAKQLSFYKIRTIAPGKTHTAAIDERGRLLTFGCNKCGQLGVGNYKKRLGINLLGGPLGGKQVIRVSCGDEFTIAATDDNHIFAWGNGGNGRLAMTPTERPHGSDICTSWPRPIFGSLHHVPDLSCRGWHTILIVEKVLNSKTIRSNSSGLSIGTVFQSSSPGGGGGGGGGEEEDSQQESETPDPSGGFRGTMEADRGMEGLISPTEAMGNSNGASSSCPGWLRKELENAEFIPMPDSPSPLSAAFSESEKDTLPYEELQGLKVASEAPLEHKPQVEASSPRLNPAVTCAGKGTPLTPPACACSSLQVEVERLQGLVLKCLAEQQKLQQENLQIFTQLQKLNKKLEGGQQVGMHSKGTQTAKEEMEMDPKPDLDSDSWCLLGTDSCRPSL
Method: as §1

[26] = molecular target: RSK4 domain1 (Homo sapiens (Human), UniProt Q9UK32); assay: KINATIV assay; assay type: cell-based; details: 1 μM, 90 minutes, BCWM.1 cells
Method: as §1

[27] = molecular target: MLK3 (Homo sapiens (Human), UniProt Q16584); assay: KINATIV assay; assay type: cell-based; details: 1 μM, 90 minutes, BCWM.1 cells
Method: as §1

[28] = molecular target: MLKL (Homo sapiens (Human), UniProt Q8NB16); assay: KINATIV assay; assay type: cell-based; details: 1 μM, 90 minutes, BCWM.1 cells
Method: as §1

[29] = molecular target: IRE1 (Homo sapiens (Human), UniProt O75460); assay: KINATIV assay; assay type: cell-based; details: 1 μM, 90 minutes, BCWM.1 cells
Chain of IRE1 (O75460 19-977): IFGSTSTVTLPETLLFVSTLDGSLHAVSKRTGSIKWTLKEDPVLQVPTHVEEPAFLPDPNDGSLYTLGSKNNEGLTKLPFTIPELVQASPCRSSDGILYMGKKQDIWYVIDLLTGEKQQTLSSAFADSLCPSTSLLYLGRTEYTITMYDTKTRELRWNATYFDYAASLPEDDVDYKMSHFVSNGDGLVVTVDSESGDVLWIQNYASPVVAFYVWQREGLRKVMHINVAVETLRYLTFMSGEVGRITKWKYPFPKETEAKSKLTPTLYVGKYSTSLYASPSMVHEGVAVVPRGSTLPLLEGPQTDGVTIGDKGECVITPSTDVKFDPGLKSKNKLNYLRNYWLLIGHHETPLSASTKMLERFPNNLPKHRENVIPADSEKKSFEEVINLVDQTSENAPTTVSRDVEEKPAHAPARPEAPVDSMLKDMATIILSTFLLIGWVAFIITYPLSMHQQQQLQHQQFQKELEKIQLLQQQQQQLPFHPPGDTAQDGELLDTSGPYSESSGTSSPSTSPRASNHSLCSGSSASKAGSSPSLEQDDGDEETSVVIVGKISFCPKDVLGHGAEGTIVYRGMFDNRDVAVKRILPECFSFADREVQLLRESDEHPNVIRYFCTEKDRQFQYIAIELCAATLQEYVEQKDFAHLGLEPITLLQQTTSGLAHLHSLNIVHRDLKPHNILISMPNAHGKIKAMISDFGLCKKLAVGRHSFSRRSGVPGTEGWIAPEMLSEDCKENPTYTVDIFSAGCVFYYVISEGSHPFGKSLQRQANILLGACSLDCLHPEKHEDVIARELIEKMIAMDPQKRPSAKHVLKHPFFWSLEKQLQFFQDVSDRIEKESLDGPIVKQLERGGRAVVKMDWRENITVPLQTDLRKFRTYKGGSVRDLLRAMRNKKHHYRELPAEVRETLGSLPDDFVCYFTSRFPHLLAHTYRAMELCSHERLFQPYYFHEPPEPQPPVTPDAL
Method: as §1

[30] = molecular target: NEK3 (Homo sapiens (Human), UniProt P51956); assay: KINATIV assay; assay type: cell-based; details: 1 μM, 90 minutes, BCWM.1 cells
Method: as §1

[31] = system: MAP3K15, MAP3K5, MAP3K6; assay: KINATIV assay; assay type: cell-based; details: 1 μM, 90 minutes, BCWM.1 cells
Method: as §1

[32] = molecular target: ROCK1 (Homo sapiens (Human), UniProt Q13464); assay: KINATIV assay; assay type: cell-based; details: 1 μM, 90 minutes, BCWM.1 cells
Method: as §1

[33] = molecular target: CDC2 (Homo sapiens (Human), UniProt P06493); assay: KINATIV assay; assay type: cell-based; details: 1 μM, 90 minutes, BCWM.1 cells
Chain of CDC2 (P06493 whole entry): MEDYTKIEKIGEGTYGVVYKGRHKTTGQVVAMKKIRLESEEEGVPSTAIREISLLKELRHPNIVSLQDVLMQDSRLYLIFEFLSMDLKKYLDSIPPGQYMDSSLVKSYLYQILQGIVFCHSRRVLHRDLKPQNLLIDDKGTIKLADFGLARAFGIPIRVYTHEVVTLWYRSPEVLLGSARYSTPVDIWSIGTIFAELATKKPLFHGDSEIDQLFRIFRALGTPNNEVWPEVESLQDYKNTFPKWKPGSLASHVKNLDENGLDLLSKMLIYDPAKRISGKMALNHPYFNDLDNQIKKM
Method: as §1

[34] = molecular target: CDK9 (Homo sapiens (Human), UniProt P50750); assay: KINATIV assay; assay type: cell-based; details: 1 μM, 90 minutes, BCWM.1 cells
Method: as §1

[35] = molecular target: PIK3CB (Homo sapiens (Human), UniProt P42338); assay: KINATIV assay; assay type: cell-based; details: 1 μM, 90 minutes, BCWM.1 cells
Method: as §1

[36] = system: PCTAIRE1, PCTAIRE3; assay: KINATIV assay; assay type: cell-based; details: 1 μM, 90 minutes, BCWM.1 cells
Description: (§2) The cells were harvested and lysed.

[37] = system: PCTAIRE2, PCTAIRE3; assay: KINATIV assay; assay type: cell-based; details: 1 μM, 90 minutes, BCWM.1 cells
Description: as §2

[38] = molecular target: MAPKAPK3 (Homo sapiens (Human), UniProt Q16644)
Method: as §1

[39] = molecular target: PCTAIRE1 (Homo sapiens (Human), UniProt Q00536)
Method: as §1

[40] = molecular target: PRPK (Homo sapiens (Human), UniProt Q96S44)
Chain of PRPK (Q96S44 whole entry, looked up): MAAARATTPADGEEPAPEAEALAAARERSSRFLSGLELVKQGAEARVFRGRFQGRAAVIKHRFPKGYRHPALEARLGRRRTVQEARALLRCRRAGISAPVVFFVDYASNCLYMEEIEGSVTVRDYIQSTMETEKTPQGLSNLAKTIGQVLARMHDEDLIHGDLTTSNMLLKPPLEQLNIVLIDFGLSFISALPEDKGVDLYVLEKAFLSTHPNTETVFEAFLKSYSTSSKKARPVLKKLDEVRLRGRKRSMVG
Method: as §1

[41] = molecular target: PRP4 (Homo sapiens (Human), UniProt Q13523)
Chain of PRP4 (Q13523 whole entry, looked up): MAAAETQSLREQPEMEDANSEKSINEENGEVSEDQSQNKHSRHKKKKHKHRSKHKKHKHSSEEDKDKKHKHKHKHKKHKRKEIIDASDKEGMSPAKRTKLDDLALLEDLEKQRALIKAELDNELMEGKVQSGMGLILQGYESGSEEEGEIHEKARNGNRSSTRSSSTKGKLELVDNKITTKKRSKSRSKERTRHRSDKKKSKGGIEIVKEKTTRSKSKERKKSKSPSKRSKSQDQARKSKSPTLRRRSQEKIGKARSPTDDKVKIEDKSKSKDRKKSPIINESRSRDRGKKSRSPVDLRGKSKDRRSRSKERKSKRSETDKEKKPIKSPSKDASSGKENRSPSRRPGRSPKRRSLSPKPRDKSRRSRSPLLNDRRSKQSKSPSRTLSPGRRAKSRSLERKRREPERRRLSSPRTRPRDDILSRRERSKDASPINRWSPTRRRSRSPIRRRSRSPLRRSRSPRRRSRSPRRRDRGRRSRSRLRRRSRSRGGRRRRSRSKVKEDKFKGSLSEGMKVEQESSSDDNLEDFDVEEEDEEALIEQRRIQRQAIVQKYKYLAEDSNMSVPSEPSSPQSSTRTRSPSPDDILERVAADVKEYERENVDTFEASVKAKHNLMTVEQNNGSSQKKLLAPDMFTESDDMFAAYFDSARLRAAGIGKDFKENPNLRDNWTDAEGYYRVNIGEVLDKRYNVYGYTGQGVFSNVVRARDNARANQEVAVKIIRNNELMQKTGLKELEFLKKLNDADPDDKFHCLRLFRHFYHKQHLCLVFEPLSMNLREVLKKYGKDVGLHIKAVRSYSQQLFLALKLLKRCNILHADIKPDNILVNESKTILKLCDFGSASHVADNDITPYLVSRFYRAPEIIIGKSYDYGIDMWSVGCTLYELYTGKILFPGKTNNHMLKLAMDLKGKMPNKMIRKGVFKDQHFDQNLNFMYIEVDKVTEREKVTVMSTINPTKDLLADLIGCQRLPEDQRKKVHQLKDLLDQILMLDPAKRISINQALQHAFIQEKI
Method: as §1

[42] = molecular target: PCTAIRE2 (Homo sapiens (Human), UniProt Q00537)
Method: as §1

Chain of ACK (Q07912 whole entry): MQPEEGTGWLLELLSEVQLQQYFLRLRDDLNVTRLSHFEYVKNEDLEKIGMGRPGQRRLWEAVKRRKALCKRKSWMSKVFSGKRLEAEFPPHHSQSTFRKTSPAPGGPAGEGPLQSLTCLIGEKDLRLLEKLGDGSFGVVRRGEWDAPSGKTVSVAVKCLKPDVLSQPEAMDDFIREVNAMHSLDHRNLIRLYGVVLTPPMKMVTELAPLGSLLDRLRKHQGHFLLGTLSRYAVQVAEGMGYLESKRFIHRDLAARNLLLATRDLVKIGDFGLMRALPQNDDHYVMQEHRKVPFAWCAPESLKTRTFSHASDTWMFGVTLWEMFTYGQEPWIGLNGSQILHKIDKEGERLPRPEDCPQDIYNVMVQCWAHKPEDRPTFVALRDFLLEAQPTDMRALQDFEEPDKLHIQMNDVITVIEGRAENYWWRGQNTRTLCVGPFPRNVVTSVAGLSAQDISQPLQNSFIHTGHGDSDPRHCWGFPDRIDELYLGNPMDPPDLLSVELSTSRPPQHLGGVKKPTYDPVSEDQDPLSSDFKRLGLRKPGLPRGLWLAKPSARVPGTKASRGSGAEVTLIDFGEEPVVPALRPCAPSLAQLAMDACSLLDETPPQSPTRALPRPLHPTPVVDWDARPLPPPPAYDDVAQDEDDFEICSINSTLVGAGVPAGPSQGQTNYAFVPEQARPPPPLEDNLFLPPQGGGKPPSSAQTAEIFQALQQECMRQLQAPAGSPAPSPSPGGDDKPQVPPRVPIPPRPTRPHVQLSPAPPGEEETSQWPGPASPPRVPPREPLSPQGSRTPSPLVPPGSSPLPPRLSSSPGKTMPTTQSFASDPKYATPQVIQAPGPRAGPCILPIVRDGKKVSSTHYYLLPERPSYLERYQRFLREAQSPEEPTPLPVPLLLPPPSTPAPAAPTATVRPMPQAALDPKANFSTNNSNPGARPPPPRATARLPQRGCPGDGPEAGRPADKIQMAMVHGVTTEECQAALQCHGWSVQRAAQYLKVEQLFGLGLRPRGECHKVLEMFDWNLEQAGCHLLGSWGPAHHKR

C=CC(=O)N1CC[C@@H](Nc2nccc(Nc3ncc(C(=O)Nc4c(C)cccc4C)s3)n2)C1 [Example I-4]
% change of MS signal compared to control sample [1]: 27.0% and 22.8% | % change of MS signal compared to control sample [2]: −4.7% | % change of MS signal compared to control sample [3]: −31.6% | % change of MS signal compared to control sample [4]: −36.1% | % change of MS signal compared to control sample [5]: 22.5% and 21.9% | % change of MS signal compared to control sample [6]: −7.1% | % change of MS signal compared to control sample [7]: 6.3% | % change of MS signal compared to control sample [8]: −1.3% | % change of MS signal compared to control sample [9]: −19.8% | % change of MS signal compared to control sample [10]: 0.3% | % change of MS signal compared to control sample [11]: −31.5% | % change of MS signal compared to control sample [12]: −8.1% | % change of MS signal compared to control sample [13]: 7.6% | % change of MS signal compared to control sample [14]: 71.0% and 43.0% | % change of MS signal compared to control sample [15]: −8.9% | % change of MS signal compared to control sample [16]: −2.7% | % change of MS signal compared to control sample [17]: −10.5% | % change of MS signal compared to control sample [18]: −72.4% | % change of MS signal compared to control sample [19]: 19.1% | % change of MS signal compared to control sample [20]: 18.4% | % change of MS signal compared to control sample [21]: −19.1% | % change of MS signal compared to control sample [22]: −102.3% | % change of MS signal compared to control sample [23]: 17.5% | % change of MS signal compared to control sample [24]: −30.6% | % change of MS signal compared to control sample [25]: −0.1% and 4.4% | % change of MS signal compared to control sample [26]: 3.5% | % change of MS signal compared to control sample [27]: −27.2% | % change of MS signal compared to control sample [28]: −9.4% | % change of MS signal compared to control sample [29]: −44.3% | % change of MS signal compared to control sample [30]: 3.5% | % change of MS signal compared to control sample [31]: 2.8% | % change of MS signal compared to control sample [32]: 6.7% | % change of MS signal compared to control sample [33]: −24.9% | % change of MS signal compared to control sample [34]: −41.9% | % change of MS signal compared to control sample [35]: −61.3% | % change of MS signal compared to control sample [36]: 12.7% | % change of MS signal compared to control sample [37]: 27.9% | % change of MS signal compared to control sample [38]: 7.0% | % change of MS signal compared to control sample [39]: 19.0% | % change of MS signal compared to control sample [40]: −13.6% | % change of MS signal compared to control sample [41]: 6.9% | % change of MS signal compared to control sample [42]: 13.4%

C=CC(=O)N1CCC(Cn2ccc(Nc3ncc(C(=O)Nc4c(C)cccc4Cl)s3)n2)C1 (stereo not shown) [II-1]
% change of MS signal compared to control sample [1]: 51.7% and 50.8% | % change of MS signal compared to control sample [2]: −19.8% | % change of MS signal compared to control sample [3]: −23.4% | % change of MS signal compared to control sample [4]: −9.2% | % change of MS signal compared to control sample [5]: 22.4% and 22.8% | % change of MS signal compared to control sample [6]: −10.3% | % change of MS signal compared to control sample [7]: −23.5% | % change of MS signal compared to control sample [8]: −22.6% | % change of MS signal compared to control sample [9]: −17.5% | % change of MS signal compared to control sample [10]: −3.8% | % change of MS signal compared to control sample [11]: −10.1% | % change of MS signal compared to control sample [12]: −23.3% | % change of MS signal compared to control sample [13]: −17.2% | % change of MS signal compared to control sample [15]: −8.7% | % change of MS signal compared to control sample [16]: −6.6% | % change of MS signal compared to control sample [17]: −11.8% | % change of MS signal compared to control sample [18]: −57.1% | % change of MS signal compared to control sample [19]: 17.4% | % change of MS signal compared to control sample [20]: −1.2% | % change of MS signal compared to control sample [22]: −65.4% | % change of MS signal compared to control sample [23]: 2.4% | % change of MS signal compared to control sample [24]: 5.2% | % change of MS signal compared to control sample [25]: −1.0% and −0.1% | % change of MS signal compared to control sample [26]: −22.4% | % change of MS signal compared to control sample [27]: −18.0% | % change of MS signal compared to control sample [28]: −0.8% | % change of MS signal compared to control sample [29]: −29.5% | % change of MS signal compared to control sample [30]: 8.1% | % change of MS signal compared to control sample [31]: 7.5% | % change of MS signal compared to control sample [32]: 12.8% | % change of MS signal compared to control sample [33]: −5.2% and 2.7% | % change of MS signal compared to control sample [34]: −57.0% | % change of MS signal compared to control sample [35]: −64.9% | % change of MS signal compared to control sample [36]: 11.4% | % change of MS signal compared to control sample [37]: 31.8% | % change of MS signal compared to control sample [38]: 6.2% | % change of MS signal compared to control sample [39]: 38.4% | % change of MS signal compared to control sample [40]: −5.2% | % change of MS signal compared to control sample [41]: 6.9% | % change of MS signal compared to control sample [42]: 7.7%

Source: patent US10844077B2, “Thiazolyl-containing compounds for treating proliferative diseases” (Dana-Farber Cancer Institute, Inc., priority 2014, dated 2020)
